According to patent publication US20090253126A1, “Biomarker Detection Assays” (ASTRAZENECA AB, priority 2004, published 2009):

How the values were obtained:
ADN mRNA = assay: Gene expression profiling / QRT-PCR of adipsin (ADN) mRNA in intestinal tissue of treated rats; type: in vivo; conditions: Han Wistar rats, intraperitoneally, 10, 30 and 100 μmol/kg/bid for 5 days
Procedure: (§1) Using gene expression profiling we detected several deregulated factors that are consistent with Hes-1 KO data. We confirmed the up-regulation of ADN mRNA in intestinal tissue by DBZ and BZ treatment but not AS treatment. […] This up-regulation preceded the appearance of goblet cell metaplasia in the crypts.
(§2) Compounds with varying potency for modulating the Notch1 pathway and causing intestinal metaplasia were injected intraperitoneally into rats twice daily for 5 days at a concentration of 10 μmol/kg, 30 μmol/kg and 100 μmol/kg. A section of duodenum was taken from untreated rats and those treated with compound. Samples were immediately frozen in liquid nitrogen then placed in a freezer maintained at −80° C. for preservation. […]
(§3) Quantitative real-time PCR (QRT-PCR) was performed by creating a standard curve assaying the gene of interest at known cDNA quantities of 50 ng, 25 ng, 8.33 ng, 2.76 ng, 0.910 ng and 0.154 ng. […] Biosource International (Camarillo, Calif.) synthesized oligonucleotide primers and fluorescence resonance energy transfer (FRET) probes. […] The raw data were applied to the standard curve and quantities were extrapolated using Prism by GraphPad Software (San Diego, Calif.). These quantities were then transformed to express fold change relative to the vehicle control (VC).

Math1 transcript = assay: Detection of Math1 transcript by quantitative real-time PCR in duodenum of treated rats; type: in vivo; conditions: at earlier time points and at lower dose; Han Wistar rats, intraperitoneally, bid for 5 days
Procedure: as §1, §2, §3

Notch signal = conditions: cited from earlier work

C[C@H](NC(=O)Cc1cc(F)cc(F)c1)C(=O)N[C@@H]1C(=O)N(C)c2ccccc2-c2ccccc21 [DBZ]
up-regulation of ADN mRNA in intestinal tissue (ADN mRNA): up-regulation
induction of Math1 compared with ADN (Math1 transcript): markedly higher than ADN
Notch signal interruption (Notch signal): known to interrupt the Notch signal
